{
  "source": "patent US10758500B2",
  "about": "“Treating androgen deprivation therapy induced hot flashes and bone loss in men using cis-clomiphene” (ASPEN PARK PHARMACEUTICALS, INC., priority 2014, dated 2020)",
  "system": "Men who have advance prostate cancer on ADT",
  "assay": "Effect of cis-clomiphene on bone turnover markers and BMD (Example 2)",
  "assay_type": "in vivo, human",
  "conditions": "50 mg/d for 6 months, Day 180 compared with baseline",
  "experimental": "Men who have advance prostate cancer on ADT are treated with 50 mg/d of substantially cis-clomiphene for 6 months. At Day 180, baseline bone turnover markers like serum bone specific alkaline phosphatase and are compared to current values as well as BMD by DEXA.\nBone analysis methodology may be carried out as described in U.S. Patent Publication No. 2004/0214898, the pertinent contents of which are incorporated herein by reference.",
  "data": [
    {"smiles": "CCN(CC)CCOc1ccc(/C(=C(/Cl)c2ccccc2)c2ccccc2)cc1", "note": "[cis-clomiphene]", "values": [
      {"measurement": "effects on bone: bone turnover markers (serum bone specific alkaline phosphatase) and BMD by DEXA", "result": "estrogenic effects on bone favorably affecting bone turnover markers and BMD"}
    ]}
  ]
}
